According to US20070032477A1, “Pteridine derivatives useful for making pharmaceutical compositions” (priority 2003, published 2007):

Assays:
[1] = tested on: TNF-α induced shock in C57BL/6 male mice; assay: Protection against a lethal dose of TNF-α; assay type: in vivo
Experimental: A model of TNF-α induced shock in C57BL/6 male mice was performed as follows. Five animals from the control group received an intravenous administration of a lethal dose of TNF-α (10 μg) in the tail. Ten animals from the test group received three intraperitoneous injections of the pteridine derivative of example 17 (20 mg/kg/day) respectively 48 hours, 24 hours and immediately before an intravenous injection of TNF-α (10 μg).
Furthermore, all five mice from the control group died within 40 hours, the survival rate (80%) of mice that received the pteridine derivative of example 17 in addition to the TNF-α dose (10 μg) was quite substantial.

[2] = tested on: CII induced rheumatoid arthritis in DBA mice; assay: Collagen type II induced model of rheumatoid arthritis; conditions: mice in vivo; example 17 up to 40 mg/kg/day; methotrexate 10 mg/kg/day, 3 times a week
Description: Collagen type II (hereinafter referred as CII) induced experimental model of rheumatoid arthritis (hereinafter referred as RA) in DBA mice is widely accepted as the most relevant and predictive preclinical model for RA. In this model, DBA mice are immunized with CII, the collagen type mainly present in the joint structures, together with complete Freund Adjuvant in their tail. 2 to 3 weeks later, several of the immunized mice start to develop arthritis in the four footpaths. In order to further worsen the disease, mice are given a second CII boost at three weeks after the first immunisation, this time however in a footpath. Because the immune system is already immunised in these mice, this rapidly provokes a severe swelling of the injected footpath (named Delayed Type Hypersensitivity or DTH) which can be used as a measurement for T-cell activation. Within a few days after the booster, almost all untreated animals start developing symptoms of arthritis. RA development is scored from 0 to 16 (16 being severe clinical arthritis in all four footpaths). At the end of the study (3 weeks after the CII boost) antibody formation was determined against CII and histology performed on the footpaths.
The efficiency of the pteridine derivative of example 17 (administered in an amount of 20 mg/kg/day, started one day before the CII boost) was explored in this CII-model.

[3] = tested on: LPS-induced shock in C3H mice; assay: Model of protection against septic shock (LPS); assay type: in vivo; conditions: 100 μg LPS i.p., 20 mg/kg/day i.p. at time of injection and 24 hours later
Experimental: As a control group, 4 sham treated (saline injection) C3H mice being injected intraperitoneously with 100 μg lipopolysaccharide (hereinafter LPS) per mouse, all died within 1 to 3 days after injection.

[4] = tested on: TNBS-induced colitis in C57 BL/6 male mice; assay: Trinitrobenzenesulfonate-induced colitis test in mice (Example 210); assay type: in vivo
Experimental: C57 BL/6 male mice (4-5 weeks) were obtained from M&B (Denmark), bred under standard pathogen-free conditions and maintained in the certified animal facility of the University Hospital Gasthuisberg, Catholic University of Leuven (Leuven, Belgium). Experiments were approved by the local Ethical Committee of Animal Experimentation. Colitis was induced by rectal administration of 1 mg trinitrobenzenesulphonate (hereinafter referred as TNBS) in 50% ethanol with 2 times pre-sensitization. Briefly, mice were sensitized twice 10 days and 5 days before challenge. For sensitization, a 2×2 cm field of the abdominal skin was shaved, and 100 μl of 5 mg TNBS in 50% ethanol solution was applied. On the day of challenge, mice were first lightly anesthetized with metofane, subsequently TNBS was administered per rectum via a round-tip needle equipped with a 1-ml syringe. The tip of the needle was inserted so that the tip was 3.5 to 4 cm proximal to the anal verge and TNBS was injected with a total volume of 100 μl. To ensure distribution of TNBS within the entire colon and cecum, mice were held in a vertical position for 1 minute after the injection.
The compound of example 17 (2-amino-4-[(N-phenoxyacetyl)-piperazin-1-yl]-6-(3,4-dimethoxy-phenyl)pteridine) was given by daily intra-peritoneal injection at the dose of 20 mg/kg (400 μg dissolved in 100 μl PBS with 10% DMSO). Control mice were treated with vehicle only. Body weights of all animals were recorded daily in order to follow the development of inflammatory colitis over a period of 10 days.
Both macroscopic and microscopic histology evaluations were performed as follows. Briefly, mice were sacrificed at day 2 by cervical […], the colon was excised and was immediately examined visually, and damage was scored on a 0-12 scale, as described previously by Shen et al. in Int. Immunopharmacol. (2004), 4:939-951. Colon sections were then fixed in 6% formalin and embedded in paraffin, cut into sections, and then stained with hematoxylin and eosin. Stained sections were examined for evidence of colitis using as criteria the presence of cell infiltration, elongation and/or distortion of crypts, crypt abscesses, reduction in goblet cell number, frank ulceration, and edema formation.
Myeloperoxidase (MPO) activity was measured as described previously by Shen et al. (cited supra). Briefly, two days after intracolonic injection of TNBS, 50 mg colon was removed, homogenised and sonicated on ice. Samples were frozen in liquid nitrogen and subsequently thawed in a water bath at 37° C., each step lasted 3 minutes and the procedure was repeated for two cycles. After centrifugation an aliquot of the supernatant was then allowed to react with a solution of tetra-methyl-benzidine (1.6 mM) and 0.1 mM H2O2. The rate of change in absorbance was measured spectrophotometrically at 460 nm. MPO activity was defined as the quantity of enzyme degrading 1 μmol of peroxide/minute at 37° C. and was expressed in units per gram weight of wet tissue. Sample enzyme activity was measured from a standard curve of known MPO unit activity (assay sensitivity 5×10^−7 units per well).
Serum levels of antibodies generated against TNBS were measured in the mouse sera on the 10th day after disease induction by enzyme-linked immunosorbent assay (ELISA). The ELISA method used herein is as reported in detail by Shen et al (cited supra).
Quantitative Reverse Transcriptase (RT)-PCR for cytokine mRNA was performed as follows: part of the colon removed on day 2 after TNBS application was immediately frozen in liquid nitrogen after dissection and stored at −70° C. until extraction of total RNA using the method of Shen et al (cited supra). A constant amount of 1 μg of total RNA was used for oligo-(dT)-primed cDNA synthesis (Ready-to-go-kit, Pharmacia, Uppsala, Sweden). After 90 minutes at 37° C., the reverse transcriptase was inactivated by incubating the cDNA samples for 5 minutes at 95° C. […]

COc1ccc(-c2cnc3nc(N)nc(N4CCN(C(=O)COc5ccccc5)CC4)c3n2)cc1OC [Example 17, 2-amino-4-[(N-phenoxyacetyl)-piperazin-1-yl]-6-(3,4-dimethoxy-phenyl)pteridine]
survival rate ([1]; TNF-α 10 μg i.v., 20 mg/kg/day i.p. three injections, within 40 hours): 80%
body temperature ([1]; followed for 40 hours, 20 mg/kg/day i.p. 48 h, 24 h and immediately before TNF-α 10 μg i.v.): body temperature of control mice dropped significantly when compared to mice receiving the test compound
mortality or cytotoxic effect on increasing the dose [2]: no mortality or cytotoxic effect
protection from acute shock related mortality [3]: all mice were protected from acute shock related mortality
days required to recover original body weight ([4]; daily i.p. 20 mg/kg): 6 days
microscopic score ([4]; daily i.p. 20 mg/kg, day 2): 6.0±0.7
average macroscopic score ([4]; daily i.p. 20 mg/kg, day 2, 0-12 scale): 6.3±0.7
MPO activity in colon ([4]; daily i.p. 20 mg/kg, two days after TNBS): 8.9±2.0 U/g
reduction in average macroscopic score ([4]; daily i.p. 20 mg/kg, versus control mice): 30%
cytokine mRNA levels for TNF-α, IL-18 and IFN-γ in colon ([4]; day 2, differences did not reach statistical significance): all reduced
Anti-TNBS antibody (IgG2a) levels ([4]; serum, after treatment): 76.6±3.3 OD
Anti-TNBS antibody (IgG1) levels ([4]; serum, compared to untreated mice): significantly lower
